The target in the assay is T1, HPC (helicase-primase complex) of HHV1, UL5-UL52-UL8 (Human alphaherpesvirus 1 strain 17, UniProt P10189+P10236).
T1 sequence (P10189 1-882): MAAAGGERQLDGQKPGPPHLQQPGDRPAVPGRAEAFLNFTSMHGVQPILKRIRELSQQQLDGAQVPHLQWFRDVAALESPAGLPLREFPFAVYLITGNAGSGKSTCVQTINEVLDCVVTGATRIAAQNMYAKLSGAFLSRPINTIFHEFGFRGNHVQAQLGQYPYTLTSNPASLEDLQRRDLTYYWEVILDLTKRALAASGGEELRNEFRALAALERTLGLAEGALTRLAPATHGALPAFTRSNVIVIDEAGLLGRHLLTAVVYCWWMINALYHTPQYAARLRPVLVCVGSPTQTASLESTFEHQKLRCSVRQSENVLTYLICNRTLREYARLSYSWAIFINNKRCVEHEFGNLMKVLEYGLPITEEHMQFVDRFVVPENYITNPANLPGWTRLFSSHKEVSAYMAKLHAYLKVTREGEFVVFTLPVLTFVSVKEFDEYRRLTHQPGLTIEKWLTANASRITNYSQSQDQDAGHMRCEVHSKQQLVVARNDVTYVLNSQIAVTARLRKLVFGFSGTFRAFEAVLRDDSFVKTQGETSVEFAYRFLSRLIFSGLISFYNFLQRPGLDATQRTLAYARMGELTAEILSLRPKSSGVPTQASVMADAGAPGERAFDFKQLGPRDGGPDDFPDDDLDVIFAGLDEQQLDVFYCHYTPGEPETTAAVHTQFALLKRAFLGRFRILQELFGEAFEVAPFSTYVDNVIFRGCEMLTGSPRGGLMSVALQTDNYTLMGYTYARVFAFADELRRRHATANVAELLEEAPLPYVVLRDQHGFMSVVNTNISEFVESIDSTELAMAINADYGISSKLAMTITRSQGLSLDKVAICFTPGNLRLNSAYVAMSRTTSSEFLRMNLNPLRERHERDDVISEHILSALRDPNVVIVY
T1 sequence (P10236 1-1058): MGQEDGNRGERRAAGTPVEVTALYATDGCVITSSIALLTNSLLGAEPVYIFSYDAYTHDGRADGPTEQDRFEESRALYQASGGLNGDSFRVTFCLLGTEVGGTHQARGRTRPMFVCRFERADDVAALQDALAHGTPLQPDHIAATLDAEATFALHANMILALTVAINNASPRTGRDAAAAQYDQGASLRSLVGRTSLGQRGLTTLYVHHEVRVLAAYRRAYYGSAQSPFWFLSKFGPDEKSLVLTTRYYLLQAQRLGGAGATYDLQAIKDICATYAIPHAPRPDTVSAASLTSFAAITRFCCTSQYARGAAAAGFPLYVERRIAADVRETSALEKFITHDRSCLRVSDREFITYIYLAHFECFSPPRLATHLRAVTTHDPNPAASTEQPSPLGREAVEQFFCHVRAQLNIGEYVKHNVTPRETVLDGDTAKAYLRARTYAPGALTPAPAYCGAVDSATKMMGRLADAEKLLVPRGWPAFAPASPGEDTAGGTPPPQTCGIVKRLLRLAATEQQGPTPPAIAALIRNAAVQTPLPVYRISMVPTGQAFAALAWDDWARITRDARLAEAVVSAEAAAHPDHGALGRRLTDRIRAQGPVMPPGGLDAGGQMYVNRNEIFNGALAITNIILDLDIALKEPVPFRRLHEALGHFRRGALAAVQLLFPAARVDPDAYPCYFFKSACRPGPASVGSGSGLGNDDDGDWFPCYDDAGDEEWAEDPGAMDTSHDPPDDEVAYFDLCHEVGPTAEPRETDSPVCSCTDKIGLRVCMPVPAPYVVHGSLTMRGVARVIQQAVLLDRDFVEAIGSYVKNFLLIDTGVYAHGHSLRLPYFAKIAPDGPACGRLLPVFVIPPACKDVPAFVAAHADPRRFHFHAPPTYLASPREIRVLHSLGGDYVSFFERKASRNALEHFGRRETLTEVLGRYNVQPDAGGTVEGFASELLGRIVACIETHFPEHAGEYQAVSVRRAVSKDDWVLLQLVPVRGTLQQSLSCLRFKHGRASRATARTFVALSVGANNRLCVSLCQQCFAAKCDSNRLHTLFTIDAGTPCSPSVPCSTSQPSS
T1 sequence (P10192 1-750 partner): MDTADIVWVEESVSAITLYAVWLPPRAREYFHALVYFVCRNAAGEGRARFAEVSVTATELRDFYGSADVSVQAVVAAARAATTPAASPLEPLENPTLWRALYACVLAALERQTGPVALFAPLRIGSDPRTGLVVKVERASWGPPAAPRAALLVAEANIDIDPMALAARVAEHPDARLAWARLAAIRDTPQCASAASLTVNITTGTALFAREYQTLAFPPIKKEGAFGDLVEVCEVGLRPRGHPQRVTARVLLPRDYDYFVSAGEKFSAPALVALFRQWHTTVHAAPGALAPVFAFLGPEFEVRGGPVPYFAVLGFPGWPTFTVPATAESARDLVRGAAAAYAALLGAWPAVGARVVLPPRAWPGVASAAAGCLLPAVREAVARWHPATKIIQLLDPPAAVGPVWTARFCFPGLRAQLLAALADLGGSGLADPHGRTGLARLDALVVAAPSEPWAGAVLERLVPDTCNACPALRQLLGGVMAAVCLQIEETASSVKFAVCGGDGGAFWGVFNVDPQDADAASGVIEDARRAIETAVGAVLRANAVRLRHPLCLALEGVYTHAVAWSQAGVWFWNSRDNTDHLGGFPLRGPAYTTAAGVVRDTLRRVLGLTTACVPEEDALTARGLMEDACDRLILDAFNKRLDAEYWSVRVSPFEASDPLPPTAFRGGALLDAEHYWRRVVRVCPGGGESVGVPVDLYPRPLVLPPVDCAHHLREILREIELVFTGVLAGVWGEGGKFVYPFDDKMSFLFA
Kind of assay: NADH-coupled ATPase assay, Morrison fit of Kiapp, mixed inhibition model. It counts as biochemical.

Consider `Cc1cccc(C)c1N(CC(=O)Nc1ccc(-c2ncon2)cc1)C(=O)C1CCS(=O)(=O)CC1` [amenamevir], for which the Ki came to 1.84 ± 0.16 nM. Under `Cc1nc(N(C)C(=O)Cc2ccc(-c3ccccn3)cc2)sc1S(N)(=O)=O` [pritelivir] stands 1.99 ± 0.18 nM.

The record behind these values is doi:10.1101/2025.05.12.653380v2 (biorxiv, 2026).
